pIC50: −log10 of the molar value.
Target: Human IDO1 (Homo sapiens (Human), UniProt P14902)
Assay: IDO Kynurenine Assay with Human IDO1/HEK293 Cells
Format: cell-based
Conditions: 20 hours incubation, kynurenine detected with Ehrlich reagent, absorbance at 490 nm, read-out: HEK Human IDO-1 IC50
Method: IDO Kynurenine Assay with Human IDO1/HEK293 Cells
Human IDO1/HEK293 cells were seeded at 10,000 cells per 50 uL per well with RPMI/phenol red free media contains 10% FBS in a 384-well black wall clear bottom tissue culture plate (Matrix Technologies LLC) 125 nL of certain concentration of compound was then added to each well using ECHO liquid handling systems. The cells were incubated for 20 hours in 37° C. incubator with 5% CO2.
The compound treatments were stopped by adding Trichloroacetic Acid (Sigma-Aldrich) to a final concentration at 0.2%. The cell plate was further incubated at 50° C. for 30 minute. The equal volume supernatant (20 uL) and 0.2% (w/v) Ehrlich reagent (4-dimethylaminobenzaldehyde, Sigma-Aldrich) in glacial acetic acid were mixed in a new clear bottom 384-well plate. This plate was then incubated at room temperature for 30 minute. The absorbance at 490 nm was measured on Envision plate reader.
Compound IC50 values were calculated using the counts of 500 nM of a reference standard treatment as one hundred percent inhibition, and counts of no compound but DMSO treatment as zero percent inhibition.

Chain of Human IDO1 (P14902 whole entry): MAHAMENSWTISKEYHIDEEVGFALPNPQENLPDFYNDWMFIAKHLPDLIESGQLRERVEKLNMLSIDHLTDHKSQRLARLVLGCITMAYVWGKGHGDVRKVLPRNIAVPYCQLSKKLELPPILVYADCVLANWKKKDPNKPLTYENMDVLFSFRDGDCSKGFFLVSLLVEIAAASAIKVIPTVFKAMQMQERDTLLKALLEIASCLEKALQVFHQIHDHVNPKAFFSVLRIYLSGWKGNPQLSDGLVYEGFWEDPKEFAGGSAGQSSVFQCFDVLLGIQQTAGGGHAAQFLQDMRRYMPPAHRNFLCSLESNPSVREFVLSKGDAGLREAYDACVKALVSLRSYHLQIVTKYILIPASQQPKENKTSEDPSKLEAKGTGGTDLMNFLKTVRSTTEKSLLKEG

| Compound | pIC50 |
| --- | --- |
| CC(C)CN(CC(C)C)c1ccc(C(CC(=O)O)C(F)(F)F)cc1NC(=O)Nc1ccc(F)cc1F (centres unmarked) [Example 30, 3-(3-(3-(2,4-difluorophenyl)ureido)-4-(diisobutylamino)phenyl)-4,4,4-trifluorobutanoic acid] | 9.15 |
| Cc1ccc(NC(=O)Nc2cc(C3(CC(=O)O)COC3)ccc2N(CC(C)C)CC(C)C)cc1 [Example 2, 2-(3-(4-(diisobutylamino)-3-(3-(p-tolyl)ureido)phenyl)oxetan-3-yl)acetic acid] | 6.69 |
| Cc1cc(NC(=O)Nc2cc([C@@H](C)CC(=O)O)ccc2N(CC(C)C)CC(C)C)no1 [Example 44, (S)-3-(4-(diisobutylamino)-3-(3-(5-methylisoxazol-3-yl)ureido)phenyl)butanoic acid] | 7.06 |
| Cc1ccc(NC(=O)Nc2cc(C(C)CC(=O)O)ccc2N(CC(C)C)C2CCCCC2)cc1 (racemic) [Example 49, 3-(4-(cyclohexyl(isobutyl)amino)-3-(3-(p-tolyl)ureido)phenyl)butanoic acid] | 9.00 |
| Cc1cc(NC(=O)Nc2cc(C(C)CC(=O)O)ccc2N(CC(C)C)CC(C)C)on1 (racemic) [Example 13, 3-(4-(diisobutylamino)-3-(3-(3-methylisoxazol-5-yl)ureido)phenyl)butanoic acid] | 8.52 |
| CC(C)CN(CC(C)C)c1ccc([C@H](C)CC(=O)O)cc1NC(=O)Nc1cncnc1 [Example 37, (R)-3-(4-(diisobutylamino)-3-(3-(pyrimidin-5-yl)ureido)phenyl)butanoic acid] | 7.96 |

Continued, values first:

| pIC50 | Compound |
| --- | --- |
| 7.77 | Cc1ccc(NC(=O)Nc2cc([C@@H](C)CC(=O)O)ccc2N(CC(C)C)CC(C)C)cc1 [Example 43, (S)-3-(4-(diisobutylamino)-3-(3-(p-tolyl)ureido)phenyl)butanoic acid] |
| 6.77 | Cc1ncc(NC(=O)Nc2cc([C@@H](C)CC(=O)O)ccc2N(CC(C)C)CC(C)C)cn1 [Example 39, (S)-3-(4-(diisobutylamino)-3-(3-(2-methylpyrimidin-5-yl)ureido)phenyl)butanoic acid] |
| 7.66 | Cc1ncc(NC(=O)Nc2cc([C@H](C)CC(=O)O)ccc2N(CC(C)C)CC(C)C)cn1 [Example 40, (R)-3-(4-(diisobutylamino)-3-(3-(2-methylpyrimidin-5-yl)ureido)phenyl)butanoic acid] |
| 8.30 | CC(C)CN(CC(C)C)c1ccc([C@H](C)CC(=O)O)cc1NC(=O)Cc1ccc(C#N)cc1 [Example 45, (R)-3-(3-(2-(4-cyanophenyl)acetamido)-4-(diisobutylamino)phenyl)butanoic acid] |
| 7.54 | CC(C)CN(CC(C)C)c1ccc([C@@H](C)CC(=O)O)cc1NC(=O)Nc1cncnc1 [Example 38, (S)-3-(4-(diisobutylamino)-3-(3-(pyrimidin-5-yl)ureido)phenyl)butanoic acid] |

— US9624188B2, “IDO inhibitors” (BRISTOL-MYERS SQUIBB COMPANY, priority 2013, dated 2017)
